Assay results from article PMC10489980, “Design of Potent and Salt-Insensitive Antimicrobial Branched Peptides” (Polymers, 2023).
Like-named read-outs stand apart in the source and are kept apart here. One block for each compound: values may come before it. Residues, ends and D or L forms follow the SMILES beside them.

Key:
Format in all cases: cell-based
[1] = test system: Candida albicans ATCC 37092
Text: (§1) Ten organisms obtained from the American Type Culture Collection (ATCC; Rockville, MD) were used for antimicrobial assays. Four Gram-negative bacteria included Escherichia coli ATCC 25922, Pseudomonas aeruginosa ATCC 27853, Klebsiella oxytoca ATCC 49131, and Proteus vulgaris ATCC 49132. The three Gram-positive bacteria were Staphylococcus aureus 29213, Micrococcus luteus ATCC 49,732, and Enterococcus faecalis ATCC 29212. The three fungi were Candida albicans ATCC 37092, Candida kefyr ATCC 37095, and Candida tropicalis ATCC 37097. The clinical isolates were obtained from Singapore General Hospital (SGH). They are Enterococcus faecium, Staphylococcus aureus, Klebsiella pneumoniae, Acinetobacter baumannii, Pseudomonas aeruginosa, and Enterobacter species. The strains were incubated in trypticase soy broth (TSB), which was prepared in double distilled water and autoclaved for sterilization. TSB was purchased from Becton-Dickinson (Cockeysville, MD, USA).
(§2) Antimicrobial Assays. A sensitive and reproducible two-stage radial diffusion antimicrobial assay of Lehrer et al. was employed. A 1–4 × 10^6 colony-forming unit/mL of the test organism was mixed with 10 mL of molten underlay gel solution and poured into Petri dishes to form a uniform layer. The gel solution consisted of 10 mM sodium phosphate buffer, 0.03% TSB, and 0.02% Tween-20, with the addition of 100 mM NaCl in the case of high-salt conditions. Upon gel solidification, gel wells were made by a 3-mm diameter template in an evenly spaced array. A 5 µL aliquot of a serial half-log dilution of test peptides at seven concentrations was added to each well after removal of gel plugs. The dishes were incubated at 37 °C for 3 h to allow peptide diffusion into the underlay gels. Gels were overlaid with 10 mL of 1% agarose in 6% TSB (wt/vol). After additional incubation at 37 °C for 16–24 h, the diameter of the clear zone surrounding the wells (colony-free) was measured under a microscope. Antimicrobial activities were expressed in units (0.1 mm = 1 unit), and the MICs (in µM) were determined from the x-intercepts of the dose-response curves. Experiments were performed in triplicates.

Candida kefyr ATCC 37095 = test system: Candida kefyr ATCC 37095
Text: as §1, §2

[2] = test system: Candida tropicalis ATCC 37097
Text: as §1, §2

[3] = test system: Enterococcus faecalis ATCC 29212
Text: as §1, §2

[4] = test system: Escherichia coli ATCC 25922
Text: as §1, §2

[5] = test system: Klebsiella oxytoca ATCC 49131
Text: as §1, §2

[6] = test system: Micrococcus luteus ATCC 49,732
Text: as §1, §2

[7] = test system: Proteus vulgaris ATCC 49132
Text: as §1, §2

[8] = test system: Pseudomonas aeruginosa ATCC 27853
Text: as §1, §2

[9] = test system: Staphylococcus aureus 29213
Text: as §1, §2

- MIC, C. albicans, H-Salt ([1]; ATCC 37092, radial diffusion assay, high-salt (100 mM NaCl), triplicates): 1.6 µM
- MIC, C. albicans, L-Salt ([1]; ATCC 37092, radial diffusion assay, low-salt (without NaCl), triplicates): 1.4 µM
- MIC, C. kefyr, H-Salt (Candida kefyr ATCC 37095; ATCC 37095, radial diffusion assay, high-salt (100 mM NaCl), triplicates): 0.8 µM
- MIC, C. kefyr, L-Salt (Candida kefyr ATCC 37095; ATCC 37095, radial diffusion assay, low-salt (without NaCl), triplicates): 0.7 µM
- MIC, C. tropicalis, H-Salt ([2]; ATCC 37097, radial diffusion assay, high-salt (100 mM NaCl), triplicates): 1.5 µM
- MIC, C. tropicalis, L-Salt ([2]; ATCC 37097, radial diffusion assay, low-salt (without NaCl), triplicates): 1.4 µM
- MIC, E. faecalis, H-Salt ([3]; ATCC 29212, radial diffusion assay, high-salt (100 mM NaCl), triplicates): > 500 µM
- MIC, E. faecalis, L-Salt ([3]; ATCC 29212, radial diffusion assay, low-salt (without NaCl), triplicates): 6.6 µM
- MIC, E. coli, H-Salt ([4]; ATCC 25922, two-stage radial diffusion assay, high-salt (underlay gel 10 mM sodium phosphate, 0.03% TSB, 0.02% Tween-20, with 100 mM NaCl), 37 °C, x-intercept of dose-response curve, triplicates): 4.1 µM
- MIC, E. coli, L-Salt ([4]; ATCC 25922, two-stage radial diffusion assay, low-salt (underlay gel 10 mM sodium phosphate, 0.03% TSB, 0.02% Tween-20, without NaCl), 37 °C, x-intercept of dose-response curve, triplicates): 0.7 µM
- MIC, K. oxytoca, H-Salt ([5]; ATCC 49131, radial diffusion assay, high-salt (100 mM NaCl), triplicates): 2.4 µM
- MIC, K. oxytoca, L-Salt ([5]; ATCC 49131, radial diffusion assay, low-salt (without NaCl), triplicates): 1.8 µM
- MIC, M. luteus, H-Salt ([6]; ATCC 49,732, radial diffusion assay, high-salt (100 mM NaCl), triplicates): 6.9 µM
- MIC, M. luteus, L-Salt ([6]; ATCC 49,732, radial diffusion assay, low-salt (without NaCl), triplicates): 1.8 µM
- MIC, P. vulgaris, H-Salt ([7]; ATCC 49132, radial diffusion assay, high-salt (100 mM NaCl), triplicates): 2.2 µM
- MIC, P. vulgaris, L-Salt ([7]; ATCC 49132, radial diffusion assay, low-salt (without NaCl), triplicates): 5.6 µM
- MIC, P. aeruginosa, H-Salt ([8]; ATCC 27853, radial diffusion assay, high-salt (100 mM NaCl), triplicates): 4.8 µM
- MIC, P. aeruginosa, L-Salt ([8]; ATCC 27853, radial diffusion assay, low-salt (without NaCl), triplicates): 2.1 µM
- MIC, S. aureus, H-Salt ([9]; strain 29213, radial diffusion assay, high-salt (100 mM NaCl), triplicates): 2.0 µM
- MIC, S. aureus, L-Salt ([9]; strain 29213, radial diffusion assay, low-salt (without NaCl), triplicates): 7.3 µM
Structure (SMILES): CC(=O)N[C@@H](CCCNC(=O)[C@H](CCCNC(=N)N)NC(=O)[C@H](Cc1ccc(O)cc1)NC(=O)[C@H](CC(C)C)NC(=O)[C@@H](N)CCCNC(=N)N)C(=O)N[C@@H](CCCNC(=O)[C@H](CCCNC(=N)N)NC(=O)[C@H](Cc1ccc(O)cc1)NC(=O)[C@H](CC(C)C)NC(=O)[C@@H](N)CCCNC(=N)N)C(=O)N[C@@H](CCCNC(=O)[C@H](CCCNC(=N)N)NC(=O)[C@H](Cc1ccc(O)cc1)NC(=O)[C@H](CC(C)C)NC(=O)[C@@H](N)CCCNC(=N)N)C(=O)N[C@@H](CCCNC(=O)[C@H](CCCNC(=N)N)NC(=O)[C@H](Cc1ccc(O)cc1)NC(=O)[C@H](CC(C)C)NC(=O)[C@@H](N)CCCNC(=N)N)C(N)=O [O4R]

- MIC, C. albicans, H-Salt ([1]; ATCC 37092, 3 h): 1.5 µM
- MIC, C. albicans, L-Salt ([1]; ATCC 37092, 3 h): 0.9 µM
- MIC, C. kefyr, H-Salt (Candida kefyr ATCC 37095; ATCC 37095, 3 h): 0.7 µM
- MIC, C. kefyr, L-Salt (Candida kefyr ATCC 37095; ATCC 37095, 3 h): 0.7 µM
- MIC, C. tropicalis, H-Salt ([2]; ATCC 37097, 3 h): 0.7 µM
- MIC, C. tropicalis, L-Salt ([2]; ATCC 37097, 3 h): 1.1 µM
- MIC, E. faecalis, H-Salt ([3]; ATCC 29212, 3 h): > 500 µM
- MIC, E. faecalis, L-Salt ([3]; ATCC 29212, 3 h): 10.2 µM
- MIC, E. coli, H-Salt ([4]; ATCC 25922, 3 h): 2.3 µM
- MIC, E. coli, L-Salt ([4]; ATCC 25922, 3 h): 0.9 µM
- MIC, K. oxytoca, H-Salt ([5]; ATCC 49131, 3 h): 2.4 µM
- MIC, K. oxytoca, L-Salt ([5]; ATCC 49131, 3 h): 1.8 µM
- MIC, M. luteus, H-Salt ([6]; ATCC 49, 3 h): 1.7 µM
- MIC, M. luteus, L-Salt ([6]; ATCC 49, 3 h): 1.3 µM
- MIC, P. vulgaris, H-Salt ([7]; ATCC 49132, 3 h): 19.2 µM
- MIC, P. vulgaris, L-Salt ([7]; ATCC 49132, 3 h): 8.1 µM
- MIC, P. aeruginosa, H-Salt ([8]; ATCC 27853, 3 h): 3.1 µM
- MIC, P. aeruginosa, L-Salt ([8]; ATCC 27853, 3 h): 2.0 µM
- MIC, S. aureus, H-Salt ([9]; 29213, 3 h): 6.5 µM
- MIC, S. aureus, L-Salt ([9]; 29213, 3 h): 5.4 µM
Structure (SMILES): CC(C)C[C@H](NC(=O)[C@@H](N)CCCNC(=N)N)C(=O)N[C@@H](Cc1ccc(O)cc1)C(=O)N[C@@H](CCCNC(=N)N)C(=O)NCCC[C@H](NC(=O)[C@H](CCCNC(=O)[C@H](CCCNC(=N)N)NC(=O)[C@H](Cc1ccc(O)cc1)NC(=O)[C@H](CC(C)C)NC(=O)[C@@H](N)CCCNC(=N)N)NC(=O)[C@H](CCCNC(=O)[C@H](CCCNC(=N)N)NC(=O)[C@H](Cc1ccc(O)cc1)NC(=O)[C@H](CC(C)C)NC(=O)[C@@H](N)CCCNC(=N)N)NC(=O)[C@H](CCCNC(=O)[C@H](CCCNC(=N)N)NC(=O)[C@H](Cc1ccc(O)cc1)NC(=O)[C@H](CC(C)C)NC(=O)[C@@H](N)CCCNC(=N)N)NC(=O)[C@H](CCCNC(=N)N)NC(=O)[C@H](Cc1ccc(O)cc1)NC(=O)[C@H](CC(C)C)NC(=O)[C@@H](N)CCCNC(=N)N)C(N)=O [O5R] (HELM PEPTIDE1{R.L.Y.R.[Orn].[Orn].[Orn].[Orn].[am]}|PEPTIDE2{R.L.Y.R}|PEPTIDE3{R.L.Y.R}|PEPTIDE4{R.L.Y.R}|PEPTIDE5{R.L.Y.R}$PEPTIDE1,PEPTIDE2,8:R3-4:R2|PEPTIDE1,PEPTIDE3,7:R3-4:R2|PEPTIDE1,PEPTIDE4,6:R3-4:R2|PEPTIDE1,PEPTIDE5,5:R3-4:R2$$$V2.0; N-terminus assumed)
